The METLIN SMRT retention time set (Domingo-Almenara et al. 2019)

Test: gradient 5% acetonitrile 3 min, to 50% in 2 min, to 85% in 15 min, held 3 min, 100 µL/min
Conditions: column: Zorbax Extend-C18 2.1 x 50 mm; eluents: water / acetonitrile, 0.1% formic acid
Procedure, shortened: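 Pure standards were run in mixtures of ~100 molecules by HPLC coupled to a quadrupole time-of-flight mass spectrometer. The column was a Zorbax Extend-C18 (2.1 × 50 mm, 1.8 μm) at 100 μL/min, with water and acetonitrile each containing 0.1% formic acid, in positive and negative ionization mode. Dead and dwell volumes were 40 μL and 900 μL. Retention time was taken from computationally picked adduct peaks, each manually inspected, with data collected over 3 months.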

Compound	RP-LC retention time [s]
CCc1nnc2ccc(-c3noc(-c4ccc(OC)c(OC)c4)n3)cn12	829
CCSc1nnc(NC(=O)CNC(=O)c2ccc(=O)[nH]c2)s1	571
CCn1cc(C)c(C(=O)O)c1CC(=O)N1CCC(N2CCCCC2)CC1	587
Cc1cccc(CNC(=O)c2nnc(-c3ccc(S(=O)(=O)N(C)C)cc3)o2)c1	894
COCCNC(=O)C1Cc2cc(C(F)(F)F)ccc2N2CCN(C(=O)c3ccco3)CC12 (stereo not given)	767
COc1cccc(Cn2c(=O)c3sccc3n(Cc3nc(-c4ccc(Cl)c(F)c4)no3)c2=O)c1	1180
COC(=O)c1cccc(NC(=O)NC(C(=O)N2CCc3ccccc32)c2ccccc2)c1 (stereo not given)	1030
CCCc1nc(-c2c(C)cc(C)nc2NC(=O)c2ccc(F)cc2)no1	864
Cc1oc(-c2[nH]ncc2C(=O)N(C)C)cc1S(=O)(=O)Nc1ccccc1F	658
COc1ccc(C2c3c(oc4cc(C)c(C)cc4c3=O)C(=O)N2CCCN2CCOCC2)cc1OC (stereo not given)	766
COc1ccccc1/C=C/C(=O)/C=C/c1ccccc1O	772
Cc1ccc(S(=O)(=O)N2C(=O)CCC2C(=O)Nc2cc(C)ccc2C)cc1 (stereo not given)	939
Cc1cc(C)cc(NC(=O)c2[nH]c(C)c(S(=O)(=O)N3CCCC3)c2C)c1	950
O=C(CCCn1c(=O)c2cccn2c2ccc(F)cc21)NCc1cccs1	837
Cc1nc(-c2csc(S(=O)(=O)N3CCC(C(=O)Nc4ccc5c(c4)OCCO5)CC3)c2)no1	868
Cc1ccc(-c2nc3nc(C)cc(C)n3c2Nc2ccccc2)cc1	726
CCOc1ccc(NC(=O)c2sc(N3CCCC3=O)nc2CC)cc1	875
O=C(C1CCCO1)N1CCCn2nc(-c3cccs3)cc2C1 (stereo not given)	689
CC(C)CCNC(=O)C1(C)Cn2nc(C(=O)NCCc3ccccc3)cc2C(=O)N1C (stereo not given)	791
COC(=O)c1c(NCC(C)O)c2cc(F)ccc2[nH]c1=O (stereo not given)	596

Compound	RP-LC retention time [s]
Cc1ccc(-c2csc(NC(=O)c3sc(-c4ccccc4)nc3C)n2)cc1C	1390
CCc1noc(NC(C)=O)c1-c1ccc(OC)c(S(=O)(=O)NC2CCCCC2)c1	804
Cc1ccc(C2C(S(=O)(=O)c3ccc(C)cc3)=C(O)C(=O)N2Cc2ccco2)cc1 (stereo not given)	976
CC(C)(C)CC(C)(C)NCC(O)COC(C)(C)C (stereo not given)	588
Cc1nc(-c2cc(S(=O)(=O)NCC(=O)NCc3ccccc3Cl)c(C)s2)no1	870
COc1ccccc1-c1noc(C2CCCN2C(=O)C2CCC2)n1 (stereo not given)	831
COc1ccc(-c2nc3cc(C)ccn3c2Nc2ccccc2C)cc1	743
Cn1nc2n(c1=O)CCN(C(=O)c1cscn1)CC2	560
Cc1cc(C)n(C(C[N+](=O)[O-])c2ccc(Cl)cc2Cl)n1 (stereo not given)	1110
O=C(NCC1CCCO1)C1CCN(c2nnc(-c3ccccc3)o2)CC1 (stereo not given)	649
O=C(c1cn(-c2cc(N3CCCCC3)ncn2)cn1)N1CCSCC1	789
CCOC(=O)Cn1cc(-c2nc(-c3ccc(Br)cc3)no2)ccc1=O	1050
CS(=O)(=O)N1C[C@H]2CCN(Cc3c(F)cccc3Cl)C[C@H]21	571
CC(C)Cc1noc(C2(F)CCN(S(=O)(=O)c3ccc(Cl)c(Cl)c3)CC2)n1	1300
CCNC(=O)c1nn(-c2ccc(OC)c(OC)c2)c(OC)cc1=O	626
COc1ccc(OC)c(S(=O)(=O)N2CCCC(C(=O)NC(C)C)C2)c1 (stereo not given)	714
Cc1noc(-c2ccc(-n3cnc(C(=O)NC(C)c4ccc(F)cc4)c3)nc2)n1 (stereo not given)	862
Cc1cnn(Cc2nc(-c3ccc(NC(=O)c4ccsc4)cc3)oc2C)c1	876
COCCNCc1c(C(=O)O)c(C)n(Cc2ccc(Cl)cc2)c1C	704
CCn1c(N2CCCC(C(=O)Nc3cc(OC)cc(OC)c3)C2)cc(=O)n(C)c1=O (stereo not given)	829

Now from value to compound:

RP-LC retention time [s]	Compound
864	Cn1nc(-c2nnc(-c3ccccc3Cl)o2)c2c1CCN(C(=O)COc1ccccc1)C2
1420	Cc1ccc(Cl)cc1N1CCN(c2ccc3cc(S(=O)(=O)N4CCCCC4C)ccc3n2)CC1 (stereo not given)
720	Cc1cc(F)ccc1NC(=O)c1cnn2c1CCCC2
1030	CCOc1ccccc1CNC(=O)C1CCN(c2nc(CC)nc3csc(C)c23)CC1
1120	O=C(Nc1cnc(-c2ccc(Cl)cc2)nc1)c1ccc(Br)o1
1010	CC(C)N1C(=O)C(C)(C(=O)NCc2ccc(Br)cc2)Oc2cccnc21 (stereo not given)
797	CCc1ccccc1NC(=O)N1CCC2(CC1)NC(=O)c1ccccc1N2CC
855	COc1cccc(CC(=O)Nc2ccc3c(c2)Sc2ncccc2C(=O)N3C(C)C)c1
702	Cc1cccc(N2CCN(C(=O)c3cn4cc(C)ccc4n3)CC2)c1
988	Cn1c(C(=O)Nc2ccc(F)cc2Cl)cc2c(=O)oc3ccccc3c21
721	CC1(C)CC(=O)C2=C(C1)Nc1ccccc1N(CC(=O)N1CCOCC1)C2c1cccs1 (stereo not given)
706	Cc1ccc(-c2nc3cnccn3c2Nc2ccc(C(=O)O)cc2)cc1
799	COCc1nnc(C(=O)Nc2cccc(C(=O)NCCc3c[nH]c4ccc(OC)cc34)c2)s1
898	CCc1ccc(N2C(=O)CN(S(C)(=O)=O)CC2(C)C(=O)NCc2ccc(C)cc2)cc1 (stereo not given)
622	COc1ncccc1C(=O)N1CCC(C(=O)Nc2cc(C)on2)CC1
727	Ic1ccc(N2CCN(Cc3c[nH]c4ncccc34)CC2)cc1
851	CCc1ccc(Oc2cc(N3CCC(C(=O)NCCc4cccs4)CC3)ncn2)cc1
802	CC(=O)Nc1ccc(C2(C(=O)NCc3ccccc3Cl)CCC2)cc1
607	Cc1nccn1Cc1nc(-c2cccc(F)c2)no1
581	CCC(=O)NCc1nc2c(n1C)CN(S(=O)(=O)c1ccc(CC)cc1)CC2
1130	CC(C)CN(CC(C)C)c1nc(-c2ccc(Cl)cc2)nc2ccccc12
1280	Cc1ccc(Cl)cc1NC(=O)CSc1cc(N2CCN(c3ccccc3F)CC2)ncn1
969	CCn1cc(-c2nc(C)c(C(=O)NCc3ccc(F)cc3F)s2)c2cccnc21
606	CCOc1ccc(CNC(=O)c2cn3c(n2)CCCC3)cc1
929	CCOC(=O)c1nc(Nc2ccc(C)cc2Cl)c2ccccc2n1

RP-LC retention time [s]	Compound
1030	O=C(NCCC1=CCCCC1)C1CCCN(C(=O)Cc2cccc3ccccc23)C1 (stereo not given)
969	Cc1ccc(S(=O)(=O)N2CCCC2C(=O)Nc2ccc(C)cc2C)cc1 (stereo not given)
596	COc1ccccc1C(=O)N1CCC(c2cc3n(n2)CCCNC3=O)CC1
756	CC(C)CC(=O)Nc1ccc(-n2cnc(C(=O)N3CCCC(C)C3)c2)nc1 (stereo not given)
638	Cc1ccc(/C=C/S(=O)(=O)NCCn2nc(-c3cccnc3)ccc2=O)cc1
976	Cc1ccc(NC(=O)C2CCN(S(C)(=O)=O)c3cc(C)ccc3O2)cc1 (stereo not given)
924	Cc1ccc(NC(=O)N2CCCC(C)(C(=O)NCc3ccccc3)C2)c(C)c1 (stereo not given)
989	Cc1cccc(-c2noc(CN3N=NC4C(=O)N(c5ccccc5)C(=O)C43)n2)c1 (stereo not given)
741	Cc1cccc(C(=O)NC2CCN(c3cc(-c4cccs4)[nH]n3)C2)c1 (stereo not given)
814	COc1ccc(N2CCN(c3cc(SCC(=O)Nc4cc(OC)cc(OC)c4)ncn3)CC2)cc1
884	CCN1C(=O)c2cc(C(=O)NCc3ccccc3C)nn2CC1(C)C(=O)NC1CCCC1 (stereo not given)
894	O=C(NCc1ccc(-c2noc(Cc3ccc(F)cc3)n2)s1)C1CC1
609	Cc1cc2n(n1)CCCN2C(=O)CCC(=O)NCc1ccc(N(C)C)cc1
1170	Cc1nn(-c2nc(-c3ccc(Cl)cc3)cs2)c(C)c1CC(=O)NCc1ccccc1
755	O=C(Cn1cc(-c2nnco2)c2ccccc21)NCc1ccccc1F
692	CCOC(=O)N1CCN(c2ncc(C(=O)Nc3ccccc3)c(N)n2)CC1
766	O=C(c1ccc2c(c1)nnn2Cc1ccccc1)N1CCN(c2ncccn2)CC1
959	Cc1cccc(N2CCN(C(=O)Cn3ccc4ccc(N5CCOCC5)nc43)CC2)c1
662	Cc1ccsc1C(=O)N1CCC(n2cnnc2-c2ccccc2)C1 (stereo not given)
778	O=C(CCc1c[nH]c2ccccc12)N1CCn2cnnc2C1
734	COC(=O)c1ccccc1NC(=O)CSc1cc(C)nc(-c2cccnc2)n1
855	Cc1ccc(-c2cn3c(CC(=O)Nc4cccc(C#N)c4)csc3n2)cc1C
710	COc1ccc(CNC(=O)C2CCCN(c3cnc4nc(C)c(C)nc4c3)C2)cc1 (stereo not given)
859	CC(C)c1ccc(-c2nc3ncccn3c2NCc2ccccc2)cc1
628	COc1cccc(-n2nnc(C(=O)O)c2-c2ccncc2)c1
